# Reference: patent publication US9932300B2, “N,N′-diarylurea compounds and N,N′-diarylthiourea compounds as inhibitors of translation initiation” (President and Fellows of Harvard College, priority 2009, dated 2018)
# Where “and” joins values, the source holds several entries; their conditions need not be identical. Equal entries are not always repeated.
# System: eIF2-GTP-Met-tRNAi ternary complex
# Assay: Ternary complex assay (dual luciferase, firefly/renilla ratio) in stable KLN-tTA/pBISA-DL(ATF-4) cells; HTS and hit confirmation
# Assay type: cell-based, mouse
# Design: Activity 10 uM / Activity 2.5 uM / Activity 5 uM: unit not given here
# Settings: for Activity 2.5 uM: compound at 2.5 uM; for Activity 2.5 uM / Activity 10 uM / Activity 5 uM: confirmed hits of the screen (Table 5); for Activity 10 uM: compound at 10 uM; for Activity 5 uM: compound at 5 uM
# Description: For assay development, a bi-directional plasmid was designed in which a common promoter/enhancer complex drives the transcription of firefly luciferase (F-luc) ORF fused to the 5′ untranslated region (UTR) of ATF-4, and of the renilla luciferase (R-luc) ORF fused to a 90-nucleotide 5′ UTR derived from the plasmid (FIG. 6A). Because the tetracycline-regulated transactivator ((tTA), required for driving transcription from this vector) is not normally expressed in the mammalian cells, stable KLN cancer cells were constructed that expressed tTA (KLN-tTA).
# The KLN-tTA colonies that drove expression of reporter genes from pBISA-DL plasmid were selected by transient transfection and dual luciferase assay. One of these KLN-tTA cell lines was transfected with the pBISA-DL^(ATF-4) expression vector, stable colonies were selected by dual luciferase assay and expanded. To determine if reduced availability of the eIF2*GTP*Met-tRNAi ternary complex increased the translation of firefly luciferase and decreased translation of renilla luciferase, selected KLN-tTA/pBISA-DL^(AFT-4) colonies were treated with thapsigargin (TG) or tunicamycin (TU), two agents known to cause phosphorylation of eIF2α.
# This assay was then adapted for high throughput screening in 96 and 384 well plates. This was done by evaluating the cell density, length of exposure to compounds, DMSO tolerance and optimum firefly and renilla substrate. We then challenged these cells with thapsigargin or DMSO. […] Cell-based assays usually have higher variation than homogeneous in vitro assays due to position effect in the plate, and other variables associated with handling of cells and the plates.
# Screening was conducted in 384 well white opaque plates (Nalge Nunc), 100 μl volume RPMI+10% fetal bovine serum. Cells were plated at the sub-confluent density of 10,000 cells/well, and allowed to attach for a period of 16-18 hours at 37° C., 5% CO2. Compounds were added as 1 μl of a 1 mM DMSO stock solution for a final screening concentration of 10 μM, using low-volume tips for transfer (Molecular Bioproducts). Cells were then incubated in the presence of compound for an additional sixteen hours, again at 37° C., 5% CO2. Following incubation 70 μl of the culture medium was removed from each well to allow for reagent addition and plates were allowed to equilibrate to room temperature for thirty minutes. Firefly luciferase reporter activity was then read by the addition of thirty microliters of Dual Glo Luciferase reagent (Promega), followed by one hour incubation at room temperature to allow for adequate signal buildup. Luminescence counting was conducted on a Microbeta Trilux using a 1 second read time. Renilla luciferase reporter activity was measured following addition of 30 μl Stop and Glo Luciferase reagent (Promega) and incubation identical to the one carried out for the firefly luciferase one.
# Compound scores were interpreted as firefly luciferase activity divided by renilla luciferase activity, normalized to the plate's DMSO control. […] All data analysis was conducted using the BioAssay HTS software package (CambridgeSoft).
# 102,709 compounds in the NCI Open Chemical Repository were then screened using this HTS assay. […] Initial hits were confirmed by repeating the same dual luciferase assay in 96 well plates. Briefly, 20,000 cells/well were plated in triplicate for each concentration (10, 5 and 2.5 μM) of the compounds.
Structure (SMILES),Activity 2.5 uM,Activity 10 uM,Activity 5 uM,"Effect on firefly/renilla luciferase ratio (KLN-tTA/pBISA-DL(ATF-4) colonies, assay validation)"
F[C-](F)F.[C-]#[O+].[CH]1[CH][CH][CH][CH]1.[Mo].c1ccc(P(CCP(c2ccccc2)c2ccccc2)c2ccccc2)cc1 [Compound 634000],1.1,12.96,,
Br.CCC1=C(C)/C(=C/c2[nH]c(C)c(CC)c2C)N=C1C [Compound 87240],1.45,37.28,,
CCSc1nnc(-c2ccccc2)nc1Cc1ccc(OC)cc1 [Compound 655141],2.18,3.91,,
Cl.c1ccc2c(c1)Cn1c-2nc2ccccc21 [Compound 163482],1.588,3.207,,
CS(=O)(=O)c1ccc(/C=C2\C=Cc3ccccc32)cc1 [Compound 176657],1.67,4.64,,
O=C(Nc1ccc(Cl)c(Cl)c1)c1ccc(Cl)cc1 [Compound 204163],2.44,4.83,,
Cc1cccc(/C=N/Nc2cc(C)c3ccccc3n2)n1 [Compound 332426],2.37,3.15,,
CC(C)Nc1nc(NC(C)C)c2cnn(-c3ccccc3)c2n1 [Compound 19143],1.72,3.2,,
O=C(Nc1ccc(F)cc1)OCC1CC2C=CC1C2 (stereo not drawn) [Compound 213848],,3.5355,4.586,
COc1ccc2c(Cc3ccccc3)c3[n+](cc2c1OC)CCc1cc2c(cc1-3)OCO2.[Br-] [Compound 338631],1.12,3.39,,
CSc1ccc(NC(=O)Nc2ccccc2F)cc1 [Compound 205789],3.99,7.26,,
COc1cc(NC(=O)c2cc3ccccc3cc2O)c(OC)cc1Cl [Compound 73118],,10.008,8.006,
COc1ccc(-c2coc3cc(O)ccc3c2=O)cc1 [Compound 93360],,10.283,11.08,
COc1ccc(Nc2nnc(-c3nsc4ccccc34)s2)cc1 [Compound 652924],1.78,3.58,,
CC(N)c1ccc(OCCOc2ccc(C(C)(C)CC(C)(C)C)cc2)cc1 (stereo not drawn) [Compound 151117],0.85,12.07,,
COc1ccc(N=[N+]([O-])c2ccc(OC)cc2)cc1 [Compound 694092],,5.898,4.958,
c1cc(-c2ncc(-c3ccc4c(c3)CCCO4)o2)ccn1 [Compound 665702],1.79,3.38,,
O=C(Nc1ccc2ccccc2c1)c1cccc(F)c1 [Compound 214029],,6.8665,5.245,
C=C1CC(C)(COc2ccc3c(C)cc(=O)oc3c2)OC1=O (stereo not drawn) [Compound 668262],0.78,3.33,,
CC12CC3CC(C)(C1)CC(SCCN=C(N)CCl)(C3)C2.Cl [Compound 193484],1.24,22.72,,
O=C(Nc1ccccc1)c1cc(Cl)ccc1O [Compound 402600],1.14,4.82,,
Clc1ccccc1-c1ncc(-c2ccccc2)o1 [Compound 90299],2.1,3.21,,
COc1ccc2c3ccc4c(c3n(C)c2c1)C(=O)C=CC4=O [Compound 652257],3.09,8.74,,
O=C(CC(=O)Nc1ccccc1Cl)NNC(c1cc(N=Nc2ccc(Br)cc2)ccc1O)P(O)O (stereo not drawn) [Compound 659608],1.34,3.07,,
O=C(Nc1ccc(Cl)c(Cl)c1)OCC1CC2C=CC1C2 (stereo not drawn) [Compound 204751],2.91,4.76,,
CO[C@H]1/C=C/O[C@@]2(C)Oc3c(C)c(O)c4c(O)c(c(/C=N/N5CC(C)(C)N(Cc6ccccc6)CC5(C)C)c(O)c4c3C2=O)NC(=O)/C(C)=C\C=C\[C@H](C)[C@H](O)[C@@H](C)[C@@H](O)[C@@H](C)[C@H](OC(C)=O)[C@@H]1C [Compound 208394],,13.4,1.5,

Structure (SMILES),Activity 2.5 uM,Activity 10 uM,Activity 5 uM,"Effect on firefly/renilla luciferase ratio (KLN-tTA/pBISA-DL(ATF-4) colonies, assay validation)"
CN(C)c1ccc(/C=C/c2nccc3ccccc23)cc1 [Compound 408399],1.63,3.42,,
CN(C)c1ccc(-c2nc3ccccn3c2N)cc1 [Compound 240724],,4.257,3.594,
S=C(NCCc1ccccn1)N/N=C/c1ccccn1 [Compound 670779],2.57 and 2.721,6.67 and 8.739,,
Cc1ccc(C2C(Cl)C(=O)N2n2cnc3ccccc3c2=O)cc1 (stereo not drawn) [Compound 650027],4.2,4.42,,
Cl.Nc1cc2ccccc2c2c1ccc1ccccc12 [Compound 97681],1.17,8.98,,
Oc1c(Cl)cc(Cl)cc1Cc1cc(Cl)cc(Cl)c1O [Compound 402193],0.56,3.19,,
S=C(NCc1ccccc1)N/N=C/c1ccccn1 [Compound 670969],1.55,3.644,,
Clc1ccc(Cl)c(NNc2cc(Cl)ccc2Cl)c1 [Compound 165765],1.34,4.44,,
CN(C)c1ccc(/C=C/c2nc3ccccc3[nH]2)cc1 [Compound 96942],4.17,7.54,,
O=C(Nc1ccccc1O)/C(Cl)=C/Cl [Compound 157236],0.75,3.4,,
CN(C)CC1CC2C3CC=C4CC(O)CCC4(C)C3CCC2(C)C1=O (stereo not drawn) [Compound 124738],0.79,3.7,,
CC(C)(C)C[CH2][Hg][Cl] [Compound 146249],3.04,,,
CC(=O)Oc1cc2c(c3ccc4ccccc4c13)CCc1ccccc1-2 [Compound 407658],1.57,5.17,,
O=C(Nc1ccc2ccccc2c1)c1cc2ccccc2cc1O [Compound 42112],3.76,3.76,,
S=C(N/N=C/c1ccccn1)Nc1ccc(Cl)cc1 [Compound 670965],50.7 and 44.32,23.32 and 25.3088,,
CC[Si](CC)(CC)[Si](c1ccccc1)(c1ccccc1)c1ccccc1 [Compound 131584],0.89,7.95,,
CCOC(=O)c1ccc(Nc2nc3ccccc3o2)cc1 [Compound 114995],2.69,3.43,,
Clc1ccc(-c2nc(-c3ccccc3)[nH]c2-c2ccc(Cl)c(Cl)c2)cc1Cl [Compound 30759],0.88,6.9,,
CN(C)Cc1[c-]c(CN(C)C)ccc1.[Br][Pt] [Compound 315819],2.12,13.17,,
CCCCC[CH2][Sn]([CH2]CCCCC)([CH2]CCCCC)[NH]S(=O)(=O)c1ccc(C)cc1 [Compound 179762],0.72,18.35,,
CCN(CC)Cc1cc(Nc2c3ccccc3nc3c2[nH]c2ccccc23)cc(CN(CC)CC)c1O.Cl [Compound 656711],0.59,6.66,,
COc1cccc(N=Nc2ccc(N(C)C)cc2)c1 [Compound 108310],3.62,4.88,,
CCCCCCCCCCCC(c1ccccc1)[N+](C)(C)Cc1ccccc1.[Cl-] (stereo not drawn) [Compound 69510],,10.9,5.6,
O=C(Nc1ccc(Cl)cc1)Nc1ccc(Cl)c(Cl)c1 [Compound 72005],,16.9235,11.25,
"CO[C@@]12[C@H](COC(N)=O)C3=C(C(=O)C(C)=C(N)C3=O)N1C[C@@H]1N[C@@H]12 [mitomycin, reference compound]",,,,no effect
CC(C)(C)NC/C(=C\c1ccccc1)C(=O)c1ccccc1 [Compound 109156],,9.1,6.2,
